This is an account of results in patent publication US7151105B2, “Inhibitors of Hepatitis C virus RNA-dependent RNA polymerase, and compositions and treatments using the same” (Agouron Pharmaceuticals, Inc., priority 2004, dated 2006).

SMILES strings stand for the structures.

T1 sequence (P26663 2420-3010): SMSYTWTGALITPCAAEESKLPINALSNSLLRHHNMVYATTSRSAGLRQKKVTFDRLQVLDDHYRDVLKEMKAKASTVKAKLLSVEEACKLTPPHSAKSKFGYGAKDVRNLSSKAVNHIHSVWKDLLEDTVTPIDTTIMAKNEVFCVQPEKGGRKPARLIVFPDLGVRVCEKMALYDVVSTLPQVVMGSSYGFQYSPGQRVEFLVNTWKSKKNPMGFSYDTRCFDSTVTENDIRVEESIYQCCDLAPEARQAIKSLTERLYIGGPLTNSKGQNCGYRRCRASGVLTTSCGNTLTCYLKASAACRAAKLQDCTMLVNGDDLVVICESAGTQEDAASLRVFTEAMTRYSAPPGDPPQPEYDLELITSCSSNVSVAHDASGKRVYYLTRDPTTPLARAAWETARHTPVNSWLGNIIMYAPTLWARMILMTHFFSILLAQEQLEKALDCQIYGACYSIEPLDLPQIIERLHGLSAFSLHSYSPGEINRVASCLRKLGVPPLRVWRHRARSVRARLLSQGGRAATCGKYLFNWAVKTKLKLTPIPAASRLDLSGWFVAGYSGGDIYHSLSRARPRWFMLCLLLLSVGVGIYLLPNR

This assay concerns the target T1, Recombinant HCV polymerase (Hepatitis C virus genotype 1b, UniProt P26663).
T1 construct: Recombinant HCV polymerase was tested for its ability to perform primer/template-directed transcription
Put plainly: biochemical. The conditions noted are these: inhibition of polymerase-directed transcription; 30 min at 30° C; 30 nM enzyme; cpm data in triplicate. Summed up:
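Primer/template-directed RNA synthesis by 2.5 pmol HCV polymerase on poly(rC)300/biotin-dG12 with 1 μM GTP plus α-32P-GTP, in pH 7.2 Tris buffer with 10 mM MgCl2, for 30 min at 30 °C. Products were filter-captured and counted, with 1% DMSO final. IC50 was fitted from triplicate cpm; percent inhibition was reported where IC50 was impractical.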
Take `CCc1cc(CCC2(C3CCCC3)CC(O)=C(Cc3nc4nc(C)cc(C)n4n3)C(=O)O2)ccc1CNC(C)=O` (single isomer, unassigned; enantiomer 2) [A(133), Enantiomer 2 of N-[4-(2-{2-cyclopentyl-5-[(5,7-dimethyl[1,2,4]triazolo[1,5-a]pyrimidin-2-yl)methyl]-4-hydroxy-6-oxo-3,6-dihydro-2H-pyran-2-ylethyl)-2-ethylbenzyl]acetamide]: the IC50 is 5 nM.
As to `O=C1CC(=O)OC(CCc2ccc(S(=O)(=O)C(F)(F)F)cc2)(C2CCCC2)C1` (centres unmarked) [A(66), 6-Cyclopentyl-6-(2-{4[(trifluoromethyl)sulfonyl]phenyl}ethyl)dihydro-2H-pyran-2,4(3H)-dione], the 50% inhibitory concentration (IC50) is 31000 nM.
Take `CCn1nc(CC2=C(O)CC(CCc3ccc(C(C)(C)C#N)c(F)c3)(C3CCCC3)OC2=O)nc1C` (centres unmarked) [Example B(50), 2-[4-(2-{2-Cyclopentyl-5-[(1-ethyl-5-methyl-1H-1,2,4-triazol-3-yl)methyl]-4-hydroxy-6-oxo-3,6dihydro-2H-pyran-2-yl}ethyl)-2-fluorophenyl]-2-methylpropanenitrile]: the IC50 amounted to 43 nM.
In the case of `Cc1cc(C)n2nc(CC3=C(O)CC(CCc4cc(C)c(O)c(CC(F)(F)F)c4)(C4CCCC4)OC3=O)nc2n1` (centres unmarked) [A(76), 6-Cyclopentyl-3-[(5,7-dimethyl[1,2,4]triazolo[1,5-a]pyrimidin-2-yl)methyl]-4-hydroxy-6-{2-[4-hydroxy-3-methyl-5-(2,2,2-trifluoroethyl)phenyl]ethyl}-5,6-dihydro-2H-pyran-2-one], the IC50 was 5 nM.
As to `CCc1cc(CCC2(C3CCCC3)CC(O)=C(Cc3nc4nc(C)cc(C)n4n3)C(=O)O2)ccc1CO` (single isomer, unassigned; enantiomer 2) [A(115), Enantiomer 2 6-cyclopentyl-3-[(5,7-dimethyl[1,2,4]triazolo[1,5-a]pyrimidin-2-yl)methyl]-6-{2-[3-ethyl-4-(hydroxymethyl)phenyl]ethyl}-4-hydroxy-5,6-dihydro-2H-pyran-2-one], the IC50 was determined as 6 nM.
For the compound `CC(=O)NCc1ccc(CCC2(C3CCCC3)CC(O)=C(Cc3nc4nc(C)cc(C)n4n3)C(=O)O2)cc1F` (centres unmarked) [A(25), N-[4-(2-{2-Cyclopentyl-5-[(5,7-dimethyl[1,2,4]triazolo[1,5-a]pyrimidin-2-yl)methyl]-4-hydroxy-6-oxo-3,6dihydro-2H-pyran-2-yl}ethyl)-2-fluorobenzyl]acetamide], the IC50 came to 100 nM.
For the compound `CCc1cc(CCC2(C3CCCC3)CC(O)=C(Cc3nc4nc(C)cc(C)n4n3)C(=O)O2)c(OC)cn1` (centres unmarked) [A(3), 6-Cyclopentyl-3-[(5,7-dimethyl[1,2,4]triazolo[1,5-a]pyrimidin-2-yl)methyl]-6-[2-(2-ethyl-5-methoxypyridin-4-yl)ethyl]-4-hydroxy-5,6-dihydro-2H-pyran-2-one], the IC50 was found to be 1 nM.
As to `CCC(C#N)(CC)c1ccc(CCC2(C3CCCC3)CC(O)=C(Cc3nc4nc(C)cc(C)n4n3)C(=O)O2)cc1C(F)(F)F` (single isomer, unassigned) [A(154), 2-[4-(2-{2-Cyclopentyl-5-[(5,7-dimethyl[1,2,4]triazolo[1,5-a]pyrimidin-2-yl)methyl]-4-hydroxy-6-oxo-3,6-dihydro-2H-pyran-2-yl}ethyl)-2-(trifluoromethyl)phenyl]-2-ethylbutanenitrile], the IC50 is 11 nM.
Consider `CCc1cc(CCC2(C3CCCC3)CC(O)=C(Cc3nc4nc(C)cc(C)n4n3)C(=O)O2)ccc1CN1CCOCC1` (single isomer, unassigned) [A(157), 6-Cyclopentyl-3-[(5,7-dimethyl[1,2,4]triazolo[1,5-a]pyrimidin-2-yl)methyl]-{2-[3-ethyl-4-(morpholin-4-ylmethyl)phenyl]ethyl}-4-hydroxy-5,6-dihydro-2H-pyran-2-one], for which the half-inhibitory concentration (IC50) stood at 10 nM.
For `Cc1cc(C)n2nc(CC3=C(O)CC(CCc4cc(CC(F)(F)F)nc(CC(F)(F)F)c4)(C4CCCC4)OC3=O)nc2n1` (single isomer, unassigned; enantiomer 2) [A(11), Enantiomer 2 of 6-{2-[2,6-Bis(2,2,2-trifluoroethyl)pyridin-4-yl]ethyl}-6-cyclopentyl-3-[(5,7-dimethyl[1,2,4]triazolo[1,5-a]pyrimidin-2-yl)methyl]-4-hydroxy-5,6-dihydro-2H-pyran-2-one], the IC50 amounted to 8 nM.
As for `Cc1cc(CCC2(C3CCCC3)CC(O)=C(Cc3nc4nc(C)cc(C)n4n3)C(=O)O2)cc(C)n1` (centres unmarked) [A(18), 6-Cyclopentyl-6-[2-(2,6-dimethylpyridin-4-yl)ethyl]-3[(5,7-dimethyl[1,2,4]triazolo[1,5-a]pyrimidin-2-yl)methyl]-4-hydroxy-5,6dihydro-2H-pyran-2-one], the IC50 is 170 nM.
The result for `CCc1cc(CCC2(C3CCCC3)CC(O)=C(Cc3nc4nc(C)cc(C)n4n3)C(=O)O2)ccc1OCCN(C)C(=O)OC(C)(C)C` (centres unmarked) [A(69), tert-Butyl 2-[4-(2-{2-cyclopentyl-5-[(5,7-dimethyl[1,2,4]triazolo[1,5-a]pyrimidin-2-yl)methyl]-4-hydroxy-6-oxo-3,6-dihydro-2H-pyran-2-yl}ethyl)2-ethylphenoxy]ethyl(methyl)carbamate] reads 15 nM.
For `Cn1nc(C(F)(F)F)c(CC2=C(O)CC(CCc3ccc(C(C)(C)C#N)c(F)c3)(C3CCCC3)OC2=O)c1Cl` (centres unmarked) [A(97), 2-{4-[2-(5-{[5-Chloro-1-methyl-3-(trifluoromethyl)-1H-pyrazol-4-yl]methyl}-2-cyclopentyl-4-hydroxy-6-oxo-3,6-dihydro-2H-pyran-2-yl)ethyl]-2-fluorophenyl}-2-methylpropanenitrile], the IC50 came out at 11 nM.
The result for `Cc1cc(C)n2nc(CC3=C(O)CC(CCc4cc(CC(F)(F)F)nc(CC(F)(F)F)c4)(C4CCCC4)OC3=O)nc2n1` (single isomer, unassigned; enantiomer 1) [A(10), Enantiomer 1 of 6-{2-[2,6-Bis(2,2,2-trifluoroethyl)pyridin-4-yl]ethyl}-6-cyclopentyl-3-[(5,7-dimethyl[1,2,4]triazolo[1,5-a]pyrimidin-2-yl)methyl]-4-hydroxy-5,6-dihydro-2H-pyran-2-one] reads 3 nM.
Regarding `CCc1cc(CCC2(C3CCCC3)CC(O)=C(Cc3nc4nc(C)cc(C)n4n3)C(=O)O2)ccc1CNC(=O)OC(C)(C)C` (centres unmarked) [A(126)], the half-maximal inhibitory concentration (IC50) was determined as 6 nM.
Consider `CCOc1cc(O)c(CC)cc1CCC1(C2CCCC2)CC(O)=C(Cc2nc3nc(C)cc(C)n3n2)C(=O)O1` (single isomer, unassigned) [A(30), 6-Cyclopentyl-3-[(5,7-dimethyl[1,2,4]triazolo[1,5-a]pyrimidin-2-yl)methyl]-[-6–2-(2-ethoxy-5-ethyl-4-hydroxyphenyl)ethyl]-4-hydroxy-5,6-dihydro-2H-pyran-2-one], for which the IC50 came out at 4 nM.
Turning to `CCc1cc(CCC2(C3CCCC3)CC(O)=C(Cc3nc4nc(C)cc(C)n4n3)C(=O)O2)ccc1CNS(C)(=O)=O` (centres unmarked) [A(128)], the IC50 was 6 nM.
The figure for `CCc1cc(CCC2(C3CCCC3)CC(=O)CC(=O)O2)ccc1CO` (centres unmarked) [B(34), 6-Cyclopentyl-6-{2-[3-ethyl-4-(hydroxymethyl)phenyl]ethyl}dihydro-2H-pyran-2,4(3H)-dione] is 1300 nM.
The result for `CCc1cc(CCC2(C3CCCC3)CC(O)=C(Cc3nc4ncc(C)cn4n3)C(=O)O2)ccc1NS(C)(=O)=O` (centres unmarked) [A(106), N-[4-(2-{2-cyclopentyl-4-hydroxy-5-[(6-methyl[1,2,4]triazolo[1,5-a]pyrimidin-2-yl)methyl]-6-oxo-3,6-dihydro-2H-pyran-2-yl}ethyl)-2-ethylphenyl]methanesulfonamide] reads 4 nM; that for `CCc1nn2c(=O)cc(CC3=C(O)CC(CCc4ccc(C(C)(C)C#N)c(F)c4)(C4CCCC4)OC3=O)nc2s1` (centres unmarked) [B(20), 2-[4-(2-{2-Cyclopentyl-5-[(2-ethyl-5-oxo-5H-[1,3,4]thiadiazolo[3,2-a]pyrimidin-7-yl)methyl]-4-hydroxy-6-oxo-3,6-dihydro-2H-pyran-2-yl}ethyl)-2-fluorophenyl]-2-methylpropanenitrile], 5 nM; that for `COC(=O)c1ccc(CCC2(C3CCCC3)CC(=O)CC(=O)O2)cc1Cl` (centres unmarked) [B(7)], 7000 nM.
The result for `CCc1cc(CCC2(C3CCCC3)CC(O)=C(Cc3nc4nc(C)cc(C)n4n3)C(=O)O2)ccc1CC#N` (single isomer, unassigned; enantiomer 1) [A(116), Enantiomer 1 of [4-(2-{2-Cyclopentyl-5-[(5,7-dimethyl[1,2,4]triazolo[1,5-a]pyrimidin-2-yl)methyl]-4-hydroxy-6-oxo-3,6dihydro-2H-pyran-2-yl}ethyl)-2-ethylphenyl]acetonitrile] reads 5 nM; that for `CCc1cc(CCC2(C3CCCC3)CC(O)=C(Cc3nc4nc(C)cc(C)n4n3)C(=O)O2)c(OC)cn1` (single isomer, unassigned) [A(39), 6-Cyclopentyl-3-[(5,7-dimethyl[1,2,4]triazolo[1,5-a]pyrimidin-2-yl)methyl]-6-[2-(2-ethyl-5-methoxypyridin-4-yl)ethyl]-4-hydroxy-5,6-dihydro-2H-pyran-2-one], 6 nM; that for `CCc1cc(CCC2(C3CCCC3)CC(O)=C(Cc3nc4ncc(C)cn4n3)C(=O)O2)ccc1-c1ncco1` (centres unmarked) [A(137), 6-Cyclopentyl-6-{2-[3-ethyl-4-(1,3-oxazol-2-yl)phenyl]ethyl}-4-hydroxy-2-[(6-methyl[1,2,4]triazolo[1,5-a]pyrimidin-2-yl)methyl]-5,6-dihydro-2H-pyran-2-one], 300 nM.
Take `Cn1cc(CC2=C(O)CC(CCc3ccc(C(C)(C)C#N)c(F)c3)(C3CCCC3)OC2=O)cn1` (centres unmarked) [A(86), 2-[4(2-{2-Cyclopentyl-hydroxy-5[(1-methyl-1H-pyrazol-4-yl)methyl]-6-oxo-3,6-dihydro-2H-pyran-2-yl}ethyl)-2-fluorophenyl]-2-methylpropanenitrile]: the IC50 is 86 nM.
Consider `C[C@@H](NS(=O)(=O)CC(F)(F)F)c1ccc(CCC2(C3CCCC3)CC(=O)CC(=O)O2)cc1` (stereo partly drawn) [A(88), N-((1R)-1-{4-[2-(2-cyclopentyl-4,6-dioxotetrahydro-2H-pyran-2-yl)ethyl]phenyl}ethyl)-2,2,2-trifluoroethanesulfonamide], for which the IC50 worked out at 27000 nM.
